Measurements published in publication PMC10409285 (PLOS Pathogens, 2023).
Several values for one entry are separate records, joined by “and”; a condition that tells them apart may be missing. Identical values can stand only once. Like-named read-outs stand apart in the source and are kept apart here. No end group written: not given here.

What was measured:
[1] = biological target: Soluble DP4 (HLA-DPA1*01:03/DPB1*04:01) (human); experiment: fluorescence polarisation
[2] = biological target: Soluble DP4 (HLA-DPA1*01:03/DPB1*04:01) (human)
A549 cells = conditions: cells treated with IFN-γ and trametinib (IFN-γ 100 ng/mL; trametinib 50 ng/mL, 50 nM)
[3] = biological target: Soluble DRB1*15:01 (human) (UniProt P01903); experiment: fluorescence polarisation
[4] = biological target: Soluble DRB5*01:01 (human) (UniProt P01903); experiment: fluorescence polarisation
[5] = biological target: Soluble DRB1*15:01 (human) (UniProt P01903)
DR2a (DRB5*01:01) = DR2a (DRB5*01:01) (Homo sapiens, UniProt P01903+Q30154); experiment: fluorescence polarization competition binding assay, DR2a
DR2b (DRB1*15:01) = biological target: T1, DR2b (DRB1*15:01) (Homo sapiens, UniProt P01903+P01911); experiment: fluorescence polarization competition binding assay, DR2b; conditions: mean of two independent experiments
T1 construct: Soluble DRB1*15:01 and DRB5*01:01 with a covalently linked CLIP peptides; covalently linked CLIP peptide (3C-protease-cleavable linker) (cleaved yes); purchased NIH Tetramer Core Facility / Emory University (a gift of Drs. John Altman and Richard Willis, not bought)

[6] = fluorescence polarization competition, […], mean of two independent experiments, read-out: Mean IC50, DR2a (DRB5*01:01)

In the case of “P1, OC43 hemagglutinin esterase 259–273 (peptide)”, the IC50 [1] is reported as < 1 µM.

In the case of “P2, OC43 nucleoprotein 321–336 (peptide)”, the IC50 [2] is reported as > 10 µM.

With `CC(=O)Nc1cccc(-n2c(=O)n(C3CC3)c(=O)c3c(Nc4ccc(I)cc4F)n(C)c(=O)c(C)c32)c1` [trametinib] the “MHC-II expression in A549 cells” value (A549 cells) was “small increase”.

“P8, OC43 hemagglutinin esterase 93–107 (peptide)” was tested, and the IC50 [3] was < 1 µM.

P4, OC43 spike 903–917 (peptide) was tested, and the IC50 [2] was < 10 µM.

In the case of P5, OC43 spike 760–773 (peptide), the IC50 [2] is reported as < 1 µM.

With “P9, OC43 hemagglutinin esterase 128–142 (peptide)” the IC50 [4] was < 1 µM and the IC50 [3] was < 1 µM.

In the case of P11, OC43 spike 1085–1099 (peptide), the IC50 [5] is reported as < 1 µM.

For `CC(C)C[C@H](NC(=O)[C@H](C)NC(=O)[C@H](C)NC(=O)[C@@H](N)CC(C)C)C(=O)N[C@@H](CC(N)=O)C(=O)N[C@@H](C)C(=O)N[C@@H](Cc1ccccc1)C(=O)N[C@H](C(=O)N[C@@H](CO)C(=O)N[C@@H](CCC(N)=O)C(=O)N[C@H](C(=O)N[C@@H](CC(C)C)C(=O)N[C@@H](CC(N)=O)C(=O)N[C@@H](CCCCN)C(=O)N[C@@H](Cc1ccc(O)cc1)C(=O)O)C(C)C)C(C)C` [Peptide P11.NL63], the IC50 (DR2a (DRB5*01:01)) was 2.1 µM and the IC50 (DR2b (DRB1*15:01)) was 0.56 µM.

In the case of P7, OC43 spike 1147–1164 (peptide), the IC50 [2] is reported as < 10 µM.

For `CC(C)C[C@H](NC(=O)[C@H](C)NC(=O)[C@H](C)NC(=O)[C@@H](N)CC(C)C)C(=O)N[C@@H](CC(N)=O)C(=O)N[C@H](C(=O)N[C@@H](Cc1ccccc1)C(=O)N[C@H](C(=O)N[C@@H](CO)C(=O)N[C@@H](Cc1c[nH]cn1)C(=O)N[C@H](C(=O)N[C@@H](CC(C)C)C(=O)N[C@H](C(=O)N[C@@H](CCCCN)C(=O)N[C@@H](Cc1ccc(O)cc1)C(=O)O)[C@@H](C)O)[C@@H](C)O)C(C)C)C(C)C` [Peptide P11.229E], the IC50 (DR2a (DRB5*01:01)) was 2.1 µM and the IC50 (DR2b (DRB1*15:01)) was 0.21 µM.

With P10, OC43 nucleoprotein 54–68 (peptide) the IC50 [5] was < 1 µM.

For P6, OC43 spike 1140–1155 (peptide), the IC50 [2] was > 10 µM.

With P12, OC43 spike 98–114 (peptide) the IC50 [5] was > 1 µM and the IC50 [4] was < 1 µM.

In the case of `CC[C@H](C)[C@H](NC(=O)CNC(=O)[C@H](CC(N)=O)NC(=O)[C@@H](NC(=O)[C@H](Cc1ccccc1)NC(=O)[C@@H](N)CC(=O)O)[C@@H](C)CC)C(=O)N[C@@H](Cc1ccccc1)C(=O)N[C@@H](C)C(=O)N[C@@H](CCCCN)C(=O)N[C@H](C(=O)N[C@@H](CCCCN)C(=O)N[C@@H](CC(N)=O)C(=O)N[C@H](C(=O)N[C@@H](CCCCN)C(=O)N[C@H](C(=O)N[C@H](C(=O)N[C@@H](CCCCN)C(=O)O)[C@@H](C)CC)C(C)C)[C@@H](C)O)C(C)C` [Peptide P12], the IC50 (DR2a (DRB5*01:01)) is reported as < 1 µM and 0.14 µM and the IC50 (DR2b (DRB1*15:01)) is reported as 17.1 µM.

For P14, OC43 envelope 62–78 (peptide), the IC50 [2] was < 10 µM.

In the case of `CC[C@H](C)[C@H](NC(=O)[C@@H](NC(=O)CNC(=O)[C@H](CC(N)=O)NC(=O)[C@H](CCC(=O)O)NC(=O)[C@H](CC(N)=O)NC(=O)[C@H](Cc1ccc(O)cc1)NC(=O)[C@H](CCCCN)NC(=O)[C@H](CC(C)C)NC(=O)[C@H](CC(C)C)NC(=O)[C@H](Cc1ccccc1)NC(=O)[C@@H](NC(=O)[C@H](CCCNC(=N)N)NC(=O)[C@@H]1CCCN1C(=O)[C@@H](N)CCC(N)=O)[C@@H](C)O)[C@@H](C)O)C(=O)N[C@H](C(=O)O)[C@@H](C)O` [S#55 (CoV2)], the IC50 (DR2a (DRB5*01:01); [6]) is reported as 66.2 µM and the IC50 (DR2b (DRB1*15:01)) is reported as 3.7 µM.

P3, OC43 spike 97–111 (peptide) was tested, and the IC50 [2] was < 10 µM.

Molecule `CC[C@H](C)[C@H](NC(=O)[C@H](CC(C)C)NC(=O)[C@H](CCC(N)=O)NC(=O)[C@H](CCC(N)=O)NC(=O)[C@@H](NC(=O)[C@@H](NC(=O)[C@H](Cc1ccc(O)cc1)NC(=O)[C@@H](NC(=O)[C@H](CCC(N)=O)NC(=O)[C@H](CC(C)C)NC(=O)[C@H](CO)NC(=O)[C@H](CCC(N)=O)NC(=O)[C@@H](N)CC(C)C)[C@@H](C)O)C(C)C)[C@@H](C)O)C(=O)N[C@@H](CCCNC(=N)N)C(=O)N[C@@H](C)C(=O)O` [Peptide P11.CoV2] has an IC50 (DR2a (DRB5*01:01); [6]) of 2.18 µM and an IC50 (DR2b (DRB1*15:01)) of 0.45 µM.

`CC[C@H](C)[C@H](NC(=O)[C@@H](NC(=O)[C@H](CC(N)=O)NC(=O)[C@H](CO)NC(=O)[C@H](CCCCN)NC(=O)[C@H](CCC(=O)O)NC(=O)[C@@H](NC(=O)[C@H](CO)NC(=O)[C@H](C)NC(=O)[C@H](Cc1ccccc1)NC(=O)[C@H](Cc1ccc(O)cc1)NC(=O)[C@@H](NC(=O)CNC(=O)[C@H](CC(=O)O)NC(=O)[C@H](CC(N)=O)NC(=O)[C@@H](N)Cc1ccccc1)C(C)C)[C@@H](C)O)[C@@H](C)CC)C(=O)O` [S#18 (CoV2)] gave an IC50 (DR2a (DRB5*01:01); [6]) of 41.3 µM and an IC50 (DR2b (DRB1*15:01)) of 777 µM.

QGLPNNTASWFTALTQH [N#7 (CoV2)] showed an IC50 (DR2a (DRB5*01:01); [6]) of 204 µM and an IC50 (DR2b (DRB1*15:01)) of 507 µM.

With `CC(C)C[C@H](NC(=O)[C@H](C)NC(=O)[C@@H](NC(=O)[C@@H](N)CC(C)C)[C@@H](C)O)C(=O)N[C@@H](CC(N)=O)C(=O)N[C@@H](C)C(=O)N[C@@H](Cc1ccc(O)cc1)C(=O)N[C@H](C(=O)N[C@@H](CO)C(=O)N[C@@H](CCC(N)=O)C(=O)N[C@@H](CCC(N)=O)C(=O)N[C@@H](CC(C)C)C(=O)N[C@@H](CO)C(=O)N[C@@H](CC(=O)O)C(=O)N[C@@H](CO)C(=O)O)C(C)C` [Peptide P11] the IC50 (DR2a (DRB5*01:01)) was 63.5 µM and the IC50 (DR2b (DRB1*15:01)) was 0.14 µM.

`CC[C@H](C)[C@H](NC(=O)[C@H](CC(=O)O)NC(=O)[C@H](CO)NC(=O)[C@H](CC(C)C)NC(=O)[C@H](CCC(N)=O)NC(=O)[C@H](CCC(N)=O)NC(=O)[C@H](CO)NC(=O)[C@@H](NC(=O)[C@H](Cc1ccc(O)cc1)NC(=O)[C@H](C)NC(=O)[C@H](CC(N)=O)NC(=O)[C@H](CC(C)C)NC(=O)[C@H](C)NC(=O)[C@@H](NC(=O)[C@@H](N)CC(C)C)[C@@H](C)O)C(C)C)C(=O)O` [Peptide P11.HKU1] showed an IC50 (DR2a (DRB5*01:01)) of 21.3 µM and an IC50 (DR2b (DRB1*15:01)) of 0.22 µM.

In the case of EGQQIIFYEGVNFTP [Peptide P8], the IC50 (DR2a (DRB5*01:01)) is reported as 5.68 µM and the IC50 (DR2b (DRB1*15:01)) is reported as 0.23 µM.

Work on `CC[C@H](C)[C@H](NC(=O)[C@@H](NC(=O)CNC(=O)[C@H](CC(N)=O)NC(=O)[C@H](CCC(=O)O)NC(=O)[C@H](CC(N)=O)NC(=O)[C@H](Cc1ccc(O)cc1)NC(=O)[C@H](CCCCN)NC(=O)[C@H](CC(C)C)NC(=O)[C@@H](N)CC(C)C)[C@@H](C)O)C(=O)N[C@H](C(=O)N[C@@H](CC(=O)O)C(=O)N[C@@H](C)C(=O)N[C@H](C(=O)N[C@@H](CC(=O)O)C(=O)N[C@@H](CS)C(=O)O)C(C)C)[C@@H](C)O` [S#56 (CoV2)] yielded an IC50 (DR2a (DRB5*01:01); [6]) of 41.1 µM and an IC50 (DR2b (DRB1*15:01)) of 39.8 µM.
